Assays:
Assay in all cases: tryptophan fluorescence quenching, quadratic fit
Settings in all cases: read-out: Association Constant / Quadratic Model Ka (×10^5 M^-1) (converted)
[1] = target: T1, CRABP2 (cellular retinoic acid-binding protein 2) (Mus musculus, UniProt P22935)
T1 construct: recombinant in E. coli BL21(DE3), GST tag removed by PreScission Protease
T1 sequence (P22935 1-138): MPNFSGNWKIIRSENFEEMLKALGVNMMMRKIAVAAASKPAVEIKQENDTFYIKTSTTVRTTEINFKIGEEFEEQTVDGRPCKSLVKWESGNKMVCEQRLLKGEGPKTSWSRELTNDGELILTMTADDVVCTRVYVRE
Excerpt: tryptophan fluorescence quenching, quadratic fit on CRABP2 (cellular retinoic acid-binding protein 2)

[2] = target: T2, BSA (bovine serum albumin) (Bos taurus, UniProt P02769); format: binding
T2 construct: gene ALB; not biotinylated in the Ka titrations
T2 sequence (P02769 25-607): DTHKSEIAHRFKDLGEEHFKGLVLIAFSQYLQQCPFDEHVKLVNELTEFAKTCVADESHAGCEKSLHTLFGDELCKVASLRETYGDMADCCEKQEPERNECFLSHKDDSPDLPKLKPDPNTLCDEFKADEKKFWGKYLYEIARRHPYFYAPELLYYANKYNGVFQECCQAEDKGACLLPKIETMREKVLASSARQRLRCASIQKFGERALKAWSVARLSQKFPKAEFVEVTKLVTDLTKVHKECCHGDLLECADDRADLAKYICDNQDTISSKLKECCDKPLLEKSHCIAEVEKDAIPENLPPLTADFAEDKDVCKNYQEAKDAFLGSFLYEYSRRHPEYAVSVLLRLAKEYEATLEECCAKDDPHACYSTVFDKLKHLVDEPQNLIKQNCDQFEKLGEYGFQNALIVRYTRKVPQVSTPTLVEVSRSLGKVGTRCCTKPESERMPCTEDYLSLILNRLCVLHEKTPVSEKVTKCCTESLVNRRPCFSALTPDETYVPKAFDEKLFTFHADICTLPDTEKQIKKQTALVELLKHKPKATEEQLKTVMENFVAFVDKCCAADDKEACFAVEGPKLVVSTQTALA
Excerpt: tryptophan fluorescence quenching, quadratic fit on BSA (bovine serum albumin)

[3] = target: T3, RBP1 (cellular retinol-binding protein 1) (Mus musculus, UniProt Q00915)
T3 construct: recombinant in E. coli BL21, GST tag cleaved with ProTEV protease
T3 sequence (Q00915 1-135): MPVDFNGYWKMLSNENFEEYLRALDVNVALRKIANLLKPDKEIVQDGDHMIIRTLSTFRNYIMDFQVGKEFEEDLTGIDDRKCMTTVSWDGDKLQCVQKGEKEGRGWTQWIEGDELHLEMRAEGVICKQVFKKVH
Excerpt: tryptophan fluorescence quenching, quadratic fit on RBP1 (cellular retinol-binding protein 1)

Kd [1] [µM]	Kd [2] [µM]	Kd [3] [µM]	SMILES
0.0149	4.76	1.27	CC(C)N1CCC(C)(C)c2cc(C#Cc3ccc(C(=O)O)cc3)ccc21 [floRA]
0.0128	4.17	–	CC1=C(/C=C/C(C)=C/C=C/C(C)=C/C(=O)O)C(C)(C)CCC1 [atRA]

From article PMC12212452, “Studies of All-trans Retinoic Acid Transport in the Eye” (Investigative Ophthalmology & Visual Science, 2025)
